“And” between values parts separate entries of the source, which are not always exact repeats. Equal values may be shown once.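 Results reflect a 48-hour exposure of cells in 96-well plates to compound at five concentrations. At the GI50, growth is halved.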 The source made the active and inactive calls. Rule as the data show it: active = GI50 up to about 1.1 µM and inactive = higher.
What was measured:
Experiment in all cases: NCI tumour cell line growth inhibition, 48 h
HT-29 = test system: HT-29
SK-MEL-2 = test system: SK-MEL-2
NCI-H522 = test system: NCI-H522
A498 = test system: A498
ACHN = test system: ACHN
HOP-62 = test system: HOP-62
SF-268 = test system: SF-268
RXF 393 = test system: RXF 393
OVCAR-4 = test system: OVCAR-4
SNB-19 = test system: SNB-19
SN12C = test system: SN12C
TK-10 = test system: TK-10
HCT-116 = test system: HCT-116
LXFL 529 = test system: LXFL 529
NCI-H226 = test system: NCI-H226
CAKI-1 = test system: CAKI-1
OVCAR-8 = test system: OVCAR-8
HCT-15 = test system: HCT-15
SR = test system: SR
KM-20L2 = test system: KM-20L2
SK-OV-3 = test system: SK-OV-3
UACC-257 = test system: UACC-257
M14 = test system: M14
RPMI-8226 = test system: RPMI-8226
DLD-1 = test system: DLD-1
K562 = test system: K562
786-0 = test system: 786-0
SW-620 = test system: SW-620
UACC-62 = test system: UACC-62
COLO 205 = test system: COLO 205
M19-MEL = test system: M19-MEL
SK-MEL-5 = test system: SK-MEL-5
HCC 2998 = test system: HCC 2998
SF-295 = test system: SF-295
KM12 = test system: KM12
SNB-78 = test system: SNB-78
DMS-114 = test system: DMS-114
CCRF-CEM = test system: CCRF-CEM
XF498 = test system: XF498
UO-31 = test system: UO-31
NCI-H23 = test system: NCI-H23
EKVX = test system: EKVX
IGROV-1 = test system: IGROV-1
HOP-18 = test system: HOP-18
U-251 = test system: U-251
DMS-273 = test system: DMS-273
RXF 631 = test system: RXF 631
MOLT-4 = test system: MOLT-4
LOX IMVI = test system: LOX IMVI
Malme-3M = test system: Malme-3M
OVCAR-5 = test system: OVCAR-5
SK-MEL-28 = test system: SK-MEL-28
HOP-92 = test system: HOP-92
HL-60 = test system: HL-60
SNB-75 = test system: SNB-75
A549 = test system: A549
NCI-H460 = test system: NCI-H460
OVCAR-3 = test system: OVCAR-3
SF-539 = test system: SF-539
Hs-578T = test system: Hs-578T
T47D = test system: T47D
MDA-N = test system: MDA-N
MCF7 = test system: MCF7
NCI/ADR-RES = test system: NCI/ADR-RES

Measured: GI50

CC(C)(C)CC(C)(C)c1ccc(OCCOCC[N+](C)(C)Cc2ccccc2)cc1 [BENZETHONIUM CHLORIDE]
active: XF498 0.377 µM | HL-60 0.883 µM
20.5 µM: HCT-15
inactive: HT-29 1.6 µM | SK-MEL-2 2.06 µM | NCI-H522 1.66 µM | A498 16.6 µM | ACHN 11.6 µM | HOP-62 8.93 µM | SF-268 1.94 µM | RXF 393 3.11 µM | OVCAR-4 2.06 µM | SNB-19 3.1 µM | SN12C 3.52 µM | TK-10 3.64 µM | HCT-116 1.71 µM | LXFL 529 1.32 µM | NCI-H226 5.19 µM | CAKI-1 10.1 µM | OVCAR-8 3.19 µM | SR 2.03 µM | KM-20L2 3.89 µM | SK-OV-3 7.43 µM | UACC-257 1.45 µM | M14 2.08 µM | RPMI-8226 1.29 µM | DLD-1 4.21 µM | K562 2.19 µM | 786-0 5.01 µM | SW-620 2.69 µM | UACC-62 1.36 µM | COLO 205 1.49 µM | M19-MEL 1.53 µM | SK-MEL-5 1.39 µM | HCC 2998 1.5 µM | SF-295 11 µM | KM12 1.61 µM | SNB-78 1.63 µM | DMS-114 1.15 µM | CCRF-CEM 1.79 µM | UO-31 21.6 µM | NCI-H23 1.66 µM | EKVX 4.2 µM | IGROV-1 1.52 µM | HOP-18 2.79 µM | U-251 1.54 µM | DMS-273 1.44 µM | RXF 631 11.9 µM | MOLT-4 2.22 µM | LOX IMVI 1.42 µM | Malme-3M 1.52 µM | OVCAR-5 6.17 µM | SK-MEL-28 1.86 µM | HOP-92 1.88 µM | SNB-75 2.43 µM | A549 8.71 µM | NCI-H460 3.05 µM | OVCAR-3 1.52 µM

Clc1ccc(CNc2nc3ccccc3nc2-c2cccs2)c(Cl)c1
38.1 µM: HCT-15
inactive: HT-29 61 µM | SK-MEL-2 > 100 µM | ACHN 75.2 µM | HOP-62 > 100 µM | SF-268 > 100 µM | RXF 393 73.8 µM | SNB-19 > 100 µM | SN12C > 100 µM | TK-10 > 100 µM | HCT-116 49 µM | LXFL 529 > 100 µM | NCI-H226 > 100 µM | OVCAR-8 > 100 µM | SR 31.2 µM | SF-539 > 100 µM | KM-20L2 49.3 µM | UACC-257 > 100 µM | RPMI-8226 56.1 µM | K562 > 100 µM | 786-0 > 100 µM | SW-620 > 100 µM | COLO 205 50 µM | M19-MEL 66.8 µM | HCC 2998 43.5 µM | SF-295 > 100 µM | SNB-78 > 100 µM | CCRF-CEM 98.9 µM | XF498 26.7 µM | UO-31 > 100 µM | NCI-H23 68.5 µM | EKVX > 100 µM | HOP-18 > 100 µM | U-251 89.3 µM | DMS-273 86.7 µM | RXF 631 67.3 µM | MOLT-4 27.9 µM | Malme-3M > 100 µM | OVCAR-5 > 100 µM | SK-MEL-28 > 100 µM | HOP-92 13.1 µM | HL-60 21.9 µM | A549 97.3 µM | NCI-H460 > 100 µM | OVCAR-3 > 100 µM

CCOC(=O)C1=C(NC(C)(C)C)OC/C1=N\NC(=O)Cc1ccccc1
inactive: HT-29 > 100 µM | SK-MEL-2 > 100 µM | NCI-H522 > 100 µM | A498 > 100 µM | ACHN > 100 µM | HOP-62 > 100 µM | SF-268 > 100 µM | RXF 393 > 100 µM | OVCAR-4 > 100 µM | SNB-19 > 100 µM | SN12C > 100 µM | TK-10 > 100 µM | HCT-116 > 100 µM | LXFL 529 > 100 µM | NCI-H226 > 100 µM | CAKI-1 > 100 µM | OVCAR-8 > 100 µM | SR > 100 µM | SF-539 > 100 µM | KM-20L2 > 100 µM | SK-OV-3 > 100 µM | UACC-257 > 100 µM | M14 > 100 µM | DLD-1 > 100 µM | K562 > 100 µM | 786-0 > 100 µM | SW-620 > 100 µM | UACC-62 > 100 µM | COLO 205 > 100 µM | M19-MEL > 100 µM | SK-MEL-5 > 100 µM | HCC 2998 > 100 µM | SF-295 > 100 µM | KM12 > 100 µM | SNB-78 > 100 µM | DMS-114 > 100 µM | CCRF-CEM > 100 µM | XF498 > 100 µM | UO-31 > 100 µM | NCI-H23 > 100 µM | EKVX > 100 µM | IGROV-1 > 100 µM | HOP-18 > 100 µM | U-251 > 100 µM | DMS-273 > 100 µM | RXF 631 > 100 µM | MOLT-4 > 100 µM | LOX IMVI > 100 µM | Malme-3M > 100 µM | OVCAR-5 > 100 µM | SK-MEL-28 > 100 µM | HOP-92 > 100 µM | HL-60 > 100 µM | SNB-75 27.9 µM | A549 > 100 µM | NCI-H460 > 100 µM | OVCAR-3 > 100 µM
> 100 µM: HCT-15

C[C@H]1CCC/C=C/[C@@H]2C[C@H](O)C[C@H]2[C@H](O)/C=C/C(=O)O1 [BREFELDIN A]
0.0692 µM and 0.043 µM: HCT-15
inactive: HOP-18 2.81 µM
active: HT-29 < 10 nM and 15.8 nM | SK-MEL-2 47.4 nM and 30.6 nM | A498 < 10 nM and 17.4 nM | Hs-578T < 10 nM and 10.1 nM | T47D 124 nM and 71.5 nM | RXF 393 14.4 nM and 13.4 nM | OVCAR-4 < 14.7 nM and 24.7 nM | TK-10 36.7 nM and 40.8 nM | HCT-116 18.2 nM and 23.3 nM | LXFL 529 0.00877 µM | NCI-H226 19.9 nM and 25.8 nM | MDA-N 40.6 nM and 42.4 nM | OVCAR-8 < 12.9 nM and 22.2 nM | SF-539 < 21.4 nM and 21.1 nM | KM-20L2 0.0041 µM | SK-OV-3 60.1 nM and 44.1 nM | UACC-257 27.5 nM and 16 nM | M14 < 16.1 nM and 26.1 nM | DLD-1 0.0134 µM | K562 36.6 nM and 71.5 nM | 786-0 < 10 nM and 13.2 nM | SW-620 32.7 nM and < 17.4 nM | UACC-62 < 14.2 nM and 18.2 nM | COLO 205 14.3 nM and 16.4 nM | SK-MEL-5 < 10 nM and 5.83 nM | MCF7 < 16.4 nM and 26.3 nM | KM12 10.1 nM and 10.2 nM | SNB-78 0.00675 µM | XF498 0.00649 µM | UO-31 23.2 nM and < 18.3 nM | NCI-H23 12.5 nM and 25.1 nM | U-251 68.1 nM and 36.7 nM | DMS-273 0.0266 µM | RXF 631 0.101 µM | LOX IMVI 13.2 nM and 12.3 nM | NCI/ADR-RES < 14.9 nM and 27.4 nM | Malme-3M 18.1 nM and 11.3 nM | OVCAR-5 < 24 nM and 44 nM | SK-MEL-28 19.2 nM and < 19.9 nM | HOP-92 80 nM and 41.7 nM | SNB-75 < 10 nM and 8.97 nM | OVCAR-3 < 18.2 nM and 30.5 nM

O=S1(=O)CSc2ccc3ccccc3c2-c2c1ccc1ccccc21
inactive: HT-29 > 100 µM | NCI-H522 > 100 µM | ACHN > 100 µM | HOP-62 > 100 µM | SF-268 > 100 µM | RXF 393 > 100 µM | OVCAR-4 > 100 µM | SNB-19 > 100 µM | SN12C > 100 µM | TK-10 > 100 µM | HCT-116 > 100 µM | LXFL 529 > 100 µM | CAKI-1 > 100 µM | OVCAR-8 > 100 µM | SR > 100 µM | SF-539 > 100 µM | UACC-257 > 100 µM | M14 > 100 µM | DLD-1 > 100 µM | K562 > 100 µM | 786-0 > 100 µM | SW-620 > 100 µM | UACC-62 > 100 µM | COLO 205 > 100 µM | M19-MEL > 100 µM | SK-MEL-5 > 100 µM | HCC 2998 > 100 µM | SF-295 > 100 µM | KM12 > 100 µM | SNB-78 > 100 µM | DMS-114 > 100 µM | CCRF-CEM > 100 µM | XF498 > 100 µM | UO-31 > 100 µM | NCI-H23 > 100 µM | IGROV-1 > 100 µM | HOP-18 > 100 µM | U-251 > 100 µM | DMS-273 > 100 µM | RXF 631 > 100 µM | MOLT-4 > 100 µM | LOX IMVI > 100 µM | Malme-3M > 100 µM | OVCAR-5 > 100 µM | SK-MEL-28 > 100 µM | HOP-92 > 100 µM | HL-60 > 100 µM | SNB-75 > 100 µM | A549 > 100 µM | NCI-H460 > 100 µM | OVCAR-3 > 100 µM
